We go through 25 molecules from the RepoRT retention time repository.

Molecules are shown by their SMILES.

A short description of the data set: Waters ACQUITY UPLC HSS T3, 0.4 mL/min; A: water + 0.1% formic acid; B: acetonitrile + 0.1% formic acid; gradient (min/%B) 0/5 1.5/5 12/95 14/95 14.01/100 17/100. Conditions: stereoisomer not certain.

Take `Cc1cc(O)cc(O)c1C(=O)OC1CC2(C)C3CC(C)(C)CC3C=C(C=O)C12` (stereo not given): the LC retention time worked out at 10.6 min.

Regarding `CCCCCCC=CC=CCCCCCCCC(=O)OC(COC(=O)CCCCCCCCC(C)C)COP(=O)(O)OCC(O)CO` (stereo not given), the LC retention time worked out at 12.1 min.

`Nc1ncnc2c1ncn2C1OC(COP(=O)(O)O)C(O)C1O` (stereo not given): the LC retention time was 0.934 min. To `CC1CCC2(NC1)OC1CC3C4CC=C5CC(OC6OC(CO)C(OC7OC(C)C(O)C(O)C7O)C(O)C6O)CCC5(C)C4CCC3(C)C1C2C` (stereo not given) belongs 9.86 min; to `CCC1OC(=O)C(C)C(OC2CC(C)(O)C(O)C(C)O2)C(C)C(O)C(C)(O)CC(C)C(=O)C(C)C(O)C1C` (stereo not given), 9.82 min. To `O=C(O)CCNCC(=O)O` belongs 0.786 min. To `CC(C)=CCCC(C)(OC1OC(CO)C(O)C(O)C1O)C1CCC2(C)C1C(O)CC1C3(C)CCC(OC4OC(CO)C(O)C(O)C4O)C(C)(C)C3CCC12C` (stereo not given) belongs 9.82 min. `C=CC1(CO)CCC(C(C)(C)OC2OC(CO)C(O)C(O)C2O)O1` (stereo not given): the LC retention time amounted to 3.99 min. To `CC(=O)C1CCC2C3CC=C4CC(O)CCC4(C)C3CCC12C` (stereo not given) belongs 11.8 min; to `NCC1CCC(C(=O)O)CC1` (stereo not given), 0.828 min. To `CC(N)C(=O)O` (stereo not given) belongs 0.806 min; to `CNCC(=O)O`, 0.806 min.

Consider `CCCCC(CC)CS` (stereo not given), for which the LC retention time came to 0.766 min.

Regarding `Nc1nc2c(c(=O)[nH]1)NC(C(O)C(O)COP(=O)(O)OP(=O)(O)OP(=O)(O)O)C(O)N2O` (stereo not given), the LC retention time worked out at 5.68 min. To `CC1(C)OC2(C)CC(O)C1CC2OC1OC(CO)C(O)C(O)C1O` (stereo not given) belongs 3.99 min; to `O=C(O)CCCC(O)C=CC=CCCC(O)CC=CCCCCC(O)(O)O` (stereo not given), 8.55 min.

In the case of `CC(C)=CCCC(C)(O)C1CCC2(C)C1C(O)CC1C3(C)CCC(OC4OC(COC5OCC(O)C(O)C5O)C(O)C(O)C4O)C(C)(C)C3CCC12C` (stereo not given), the LC retention time came out at 10.8 min. To `CC(CP(CCCCCCS(=O)(=O)[O-])CCCCCCS(=O)(=O)[O-])P(CCCCCCS(=O)(=O)[O-])CCCCCCS(=O)(=O)[O-]` (stereo not given) belongs 1.02 min; to `COc1cc2c(c(OC)c1CC=C(C)C)CC(c1ccc(O)c3c1OC(C)(C)C=C3)CO2` (stereo not given), 4.37 min.

Turning to `CC(C)OC(=O)C(C(=O)OC(C)C)=C1SCCS1`, the LC retention time is 1.14 min.

`CCCCCCCCC=CCCCCCCCC(=O)OC(CC(=O)[O-])C[N+](C)(C)C` (stereo not given): the LC retention time came to 9.56 min. To `C[N+](C)(C)CC(O)CC(=O)[O-]` (stereo not given) belongs 0.75 min; to `CC(=O)OCCC(N)C(=O)O` (stereo not given), 0.912 min. To `CCCCCCCCCCCCCCCCCC(=O)NC(Cc1ccc(O)cc1)C(=O)O` (stereo not given) belongs 9.13 min.

Regarding `CC1(C)C(O)CC(O)C23C(=O)OC4OCC(=CCC12)C43` (stereo not given), the LC retention time turned out to be 6.31 min.
